Test results from US20250332178A1, “METHODS OF TREATING MYCOBACTERIAL INFECTIONS USING TETRACYCLINE COMPOUNDS” (priority 2018, published 2025).
Where two headings read alike, the source gives them in different places.

Tests used:
[1] = test system: M. chimaera; assay: MIC (CLSI broth dilution), slow-growing NTM isolates; format: cell-based; details: read-out: MIC
[2] = test system: M. abscessus complex; assay: MIC (CLSI broth dilution), RGM isolates; format: cell-based; details: Mycobacteroides abscessus, read-out: MIC
[3] = test system: M. intracellulare; assay: MIC (CLSI broth dilution), slow-growing NTM isolates; format: cell-based; details: Mycobacterium intracellulare, read-out: MIC
[4] = test system: M. smegmatis group; assay: MIC (CLSI broth dilution), RGM isolates; format: cell-based; details: Mycolicibacterium smegmatis, read-out: MIC
[5] = test system: M. simiae; assay: MIC (CLSI broth dilution), slow-growing NTM isolates; format: cell-based; details: read-out: MIC
[6] = test system: M. arupense; assay: as above; format: cell-based; details: isolate 11, Other; read-out: MIC
[7] = test system: M. immunogenum group; assay: MIC (CLSI broth dilution), RGM isolates; format: cell-based; details: M. immunogenum, read-out: MIC
[8] = test system: slow-growing NTM isolates; assay: MIC (CLSI broth dilution), all slow-growing NTM isolates; format: cell-based, nontuberculous mycobacteria; details: all slow-growing NTM isolates; for MIC50: read-out: MIC50; for MIC90: read-out: MIC90
[9] = test system: M. mucogenium group; assay: MIC (CLSI broth dilution), RGM isolates; format: cell-based; details: read-out: MIC
[10] = test system: M. chelonae; assay: MIC (CLSI broth dilution), RGM isolates; format: cell-based; details: Mycobacteroides chelonae, read-out: MIC
[11] = test system: rapid-growing mycobacteria (RGM) isolates; assay: MIC (CLSI broth dilution), all RGM isolates; format: cell-based, nontuberculous mycobacteria; details: all 50 RGM isolates; for MIC50: read-out: MIC50; for MIC90: read-out: MIC90
[12] = test system: M. avium; assay: MIC (CLSI broth dilution), slow-growing NTM isolates; format: cell-based; details: Mycobacterium avium, read-out: MIC
[13] = test system: M. fortuitum group; assay: MIC (CLSI broth dilution), RGM isolates; format: cell-based; details: Mycolicibacterium fortuitum, read-out: MIC
[14] = test system: Bacille Calmette Guerin (BCG); format: cell-based, Mycobacterium bovis; details: disk: 30 μg of linezolid
[15] = isolate 1, M. abscessus complex, erm gene type MAB30
[16] = isolate 2, M. abscessus complex, erm gene type MAB30
[17] = isolate 3, M. abscessus complex, erm gene type MAB30
[18] = isolate 4, M. abscessus complex, erm gene type massiliense
[19] = isolate 5, M. abscessus complex, erm gene type massiliense/subsp. abs hybrid
[20] = isolate 6, M. abscessus complex, erm gene type Type 1 abscessus
[21] = isolate 7, M. abscessus complex, erm gene type Type 1 abscessus
[22] = isolate 8, M. abscessus complex, erm gene type Type 1 abscessus
[23] = isolate 9, M. abscessus complex, erm gene type Type 1 abscessus
[24] = isolate 10, M. abscessus complex, erm gene type Type 1 abscessus
[25] = isolate 11, M. abscessus complex, erm gene type Type 6 abscessus
[26] = isolate 12, M. abscessus complex, erm gene type Type 6 abscessus
[27] = isolate 13, M. abscessus complex, erm gene type Type 6 abscessus
[28] = isolate 14, M. abscessus complex, erm gene type Type 6 abscessus
[29] = isolate 15, M. abscessus complex, erm gene type Type 7 abscessus
[30] = isolate 16, M. abscessus complex, erm gene type Type 7 abscessus
[31] = isolate 17, M. abscessus complex, erm gene type Type 8 abscessus
[32] = isolate 49, M. smegmatis group, M. goodii
[33] = isolate 50, M. smegmatis group, M. wolinskyi
[34] = isolate 35, M. immunogenum group
[35] = isolate 36, M. immunogenum group
[36] = isolate 37, M. immunogenum group
[37] = isolate 38, M. immunogenum group
[38] = isolate 39, M. mucogenicum group, M. mucogenicum
[39] = isolate 40, M. mucogenicum group, M. mucogenicum
[40] = isolate 41, M. mucogenicum group, M. mucogenicum
[41] = isolate 42, M. mucogenicum group, M. mucogenicum
[42] = isolate 43, M. mucogenicum group, M. phocaicum
[43] = isolate 44, M. mucogenicum group, M. phocaicum
[44] = isolate 45, M. mucogenicum group, M. phocaicum
[45] = isolate 46, M. mucogenicum group, M. phocaicum
[46] = isolate 47, M. mucogenicum group, M. phocaicum
[47] = isolate 48, M. mucogenicum group, M. phocaicum
[48] = isolate 23, M. fortuitum group, M. fortuitum
[49] = isolate 24, M. fortuitum group, M. fortuitum
[50] = isolate 25, M. fortuitum group, M. fortuitum
[51] = isolate 26, M. fortuitum group, M. porcinum
[52] = isolate 27, M. fortuitum group, M. porcinum
[53] = isolate 28, M. fortuitum group, M. porcinum/M. boenickei
[54] = isolate 29, M. fortuitum group, M. porcinum/M. boenickei
[55] = isolate 30, M. fortuitum group, M. porcinum/M. boenickei
[56] = isolate 31, M. fortuitum group, M. senegalense
[57] = isolate 32, M. fortuitum group, M. senegalense
[58] = isolate 33, M. fortuitum group, M. senegalense
[59] = isolate 34, M. fortuitum group, M. senegalense

COc1c(N2C[C@@H]3CCCN[C@@H]3C2)c(F)cc2c(=O)c(C(=O)O)cn(C3CC3)c12 [MXF, moxifloxacin]
≤ 0.06 µg/mL: MIC [4, 32] | MIC [13, 48] | MIC [13, 49] | MIC [13, 50] | MIC [13, 51] | MIC [13, 55]
4 µg/mL: MIC ([1]; isolate 4, MAC) | MIC [2, 19] | MIC [2, 24] | MIC [2, 26] | MIC [2, 30] | MIC [2, 31] | MIC ([5]; isolate 13, Other) | MIC [7, 35] | MIC ([10]; isolate 18, M. chelonae) | MIC ([12]; isolate 3, MAC)
> 16 µg/mL: MIC [6] | MIC ([10]; isolate 21, M. chelonae)
0.5 µg/mL: MIC ([3]; isolate 10, MAC) | MIC [9, 41] | MIC [9, 43] | MIC [9, 46]
2 µg/mL: MIC ([1]; isolate 5, MAC) | MIC ([3]; isolate 6, MAC) | MIC ([3]; isolate 8, MAC) | MIC ([3]; isolate 9, MAC) | MIC ([5]; isolate 14, Other) | MIC50 [8] | MIC ([10]; isolate 20, M. chelonae) | MIC ([10]; isolate 22, M. chelonae) | MIC50 [11] | MIC ([12]; isolate 1, MAC)
0.12 µg/mL: MIC [9, 38] | MIC [13, 52] | MIC [13, 54] | MIC [13, 56] | MIC [13, 57] | MIC [13, 58] | MIC [13, 59]
1 µg/mL: MIC ([3]; isolate 7, MAC) | MIC [9, 44] | MIC [9, 45] | MIC [9, 47]
16 µg/mL: MIC [2, 17] | MIC [2, 18] | MIC [2, 20] | MIC [2, 22] | MIC [7, 36] | MIC [7, 37] | MIC90 [11]
0.25 µg/mL: MIC [4, 33] | MIC [9, 39] | MIC [9, 40] | MIC [9, 42] | MIC ([12]; isolate 2, MAC) | MIC [13, 53]
8 µg/mL: MIC [2, 15] | MIC [2, 16] | MIC [2, 21] | MIC [2, 23] | MIC [2, 25] | MIC [2, 27] | MIC [2, 28] | MIC [2, 29] | MIC ([5]; isolate 15, Other) | MIC [7, 34] | MIC90 [8] | MIC ([10]; isolate 19, M. chelonae)

CC(=O)NC[C@H]1CN(c2ccc(N3CCOCC3)c(F)c2)C(=O)O1 [linezolid]
No growth on plate: Results/Observations (growth) [14]
4 µg/mL: MIC [2, 19] | MIC [4, 33] | MIC [9, 46] | MIC ([10]; isolate 20, M. chelonae) | MIC50 [11] | MIC [13, 49] | MIC [13, 50] | MIC [13, 52] | MIC [13, 54]
≤ 2 µg/mL: MIC [2, 28] | MIC [2, 30] | MIC [4, 32] | MIC [9, 38] | MIC [9, 39] | MIC [9, 40] | MIC [9, 41] | MIC [9, 42] | MIC [9, 43] | MIC [9, 44] | MIC [9, 45] | MIC [9, 47] | MIC [13, 48] | MIC [13, 51] | MIC [13, 53] | MIC [13, 55] | MIC [13, 56] | MIC [13, 57] | MIC [13, 58] | MIC [13, 59]
16 µg/mL: MIC ([1]; isolate 4, MAC) | MIC [2, 15] | MIC [2, 16] | MIC [2, 18] | MIC [2, 21] | MIC [2, 22] | MIC [2, 24] | MIC [2, 27] | MIC [2, 29] | MIC [2, 31] | MIC ([3]; isolate 7, MAC) | MIC ([10]; isolate 18, M. chelonae) | MIC ([10]; isolate 21, M. chelonae) | MIC ([10]; isolate 22, M. chelonae)
8 µg/mL: MIC [2, 25] | MIC [2, 26] | MIC [7, 35] | MIC ([10]; isolate 19, M. chelonae)
32 µg/mL: MIC ([1]; isolate 5, MAC) | MIC [2, 17] | MIC [2, 20] | MIC [2, 23] | MIC ([3]; isolate 6, MAC) | MIC ([3]; isolate 8, MAC) | MIC ([3]; isolate 9, MAC) | MIC ([5]; isolate 14, Other) | MIC [6] | MIC [7, 34] | MIC [7, 36] | MIC [7, 37] | MIC50 [8] | MIC90 [11] | MIC ([12]; isolate 1, MAC) | MIC ([12]; isolate 2, MAC)
> 32 µg/mL: MIC ([3]; isolate 10, MAC) | MIC ([5]; isolate 13, Other) | MIC ([5]; isolate 15, Other) | MIC90 [8] | MIC ([12]; isolate 3, MAC)
